Assay results taken from patent US9278942B2, “Non-steroidal compounds as androgen receptor modulators” (FLX Discoveries Oy, priority 2011, dated 2016).

target: T1, human AR (Homo sapiens, UniProt P10275); test: Competitive AR binding assay against [3H]-R1881 in transiently transfected COS-1 cells; details: Table 1; compound 13.4 μM; [3H]-R1881 1.34 nM; complete inhibition equals 100%
T1 construct: expressed in transfected cells; host or cells: COS-1
T1 sequence (P10275 1-920): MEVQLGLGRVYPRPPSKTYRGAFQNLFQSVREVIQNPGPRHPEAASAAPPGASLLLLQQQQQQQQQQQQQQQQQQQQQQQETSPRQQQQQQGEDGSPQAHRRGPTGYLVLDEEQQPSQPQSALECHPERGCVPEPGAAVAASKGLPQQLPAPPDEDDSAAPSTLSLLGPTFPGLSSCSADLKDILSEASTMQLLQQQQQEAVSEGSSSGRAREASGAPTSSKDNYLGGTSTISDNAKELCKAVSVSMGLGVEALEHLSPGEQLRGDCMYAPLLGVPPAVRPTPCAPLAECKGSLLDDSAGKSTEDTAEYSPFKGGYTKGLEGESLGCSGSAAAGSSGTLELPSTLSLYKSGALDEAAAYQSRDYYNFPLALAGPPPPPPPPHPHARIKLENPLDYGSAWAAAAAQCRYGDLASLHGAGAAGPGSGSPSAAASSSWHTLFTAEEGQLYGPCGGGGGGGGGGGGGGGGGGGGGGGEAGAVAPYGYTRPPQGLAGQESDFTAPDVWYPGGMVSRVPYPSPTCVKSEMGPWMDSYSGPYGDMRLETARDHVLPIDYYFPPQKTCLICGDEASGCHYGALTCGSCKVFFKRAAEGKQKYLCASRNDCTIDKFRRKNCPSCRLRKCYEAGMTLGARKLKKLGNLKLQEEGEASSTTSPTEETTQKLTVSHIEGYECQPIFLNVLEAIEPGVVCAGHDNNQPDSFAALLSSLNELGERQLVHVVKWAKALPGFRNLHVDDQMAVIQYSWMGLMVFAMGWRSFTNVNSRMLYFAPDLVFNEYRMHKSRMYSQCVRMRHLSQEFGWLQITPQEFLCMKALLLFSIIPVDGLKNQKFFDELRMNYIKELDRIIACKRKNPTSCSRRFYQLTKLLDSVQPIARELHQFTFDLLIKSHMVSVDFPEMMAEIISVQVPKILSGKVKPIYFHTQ
Method: Competitive AR Binding Assay.
AR binding was measured by a competitive assay against [^3H]-R1881 (PerkinElmer) in transiently transfected COS-1 cells. One day before transfection, COS-1 cells were seeded into 2 ml of DMEM (Dulbecco's modified Eagle medium, Gipco) with 10% dextran-charcoal-treated fetal bovine serum and 0.25% (vol/vol) Penicillin-Streptomysin (Euroclone) at a density of 140×10^3 cells/well. After medium change to DMEM 2.5% FBS, the cells were transfected for 24 hours with 10 ng/well of human AR expression vector pSG5 hAR by using the TransIT method (Micrus Bio TransIT LT1, Transfection Reagent). After 36 hours, the cells where treated with tested compounds using 10000 fold molarities compared to labelled R1881 (1.34 nM). After 2 hours of incubation at 37° C., the medium was removed. The cells were removed from the wells to 150 μl of 1× phosphate buffered saline (PBS), transferred to Eppendorf tubes and centrifuged at 4° C. using 4000×g for 5 min, and then washed twice with 150 μl of PBS. The cell pellets were dissolved to 50 μl of 0.5M NaOH and incubated for 15 min at 56° C., after which the samples (three replicates for each sample compound) were transferred to liquid twinkle tubes with 3 ml of OptiPhase HiSafe 3 twinkle solution (PerkinElmer) and radioactivity of AR-bound [^3H]-R1881 determined. The results were measured with LKB WALLAC 1214 racbeta equipment. The ability of test compounds to bind AR is reported as reduction in bound radioactivity obtained with 1.34 nM [^3H]-R1881.
The results (% inhibition) were calculated as: % inhibition=100−[100×(averagecompound/average[3H]-R1881)].

| SMILES | Inhibition of [3H]-R1881 binding at 1.34 nM ± S.D. [%] |
| --- | --- |
| COc1ccccc1C1=NOC(Cc2ccccc2)(c2ccccc2)C1 (single isomer, unassigned) [Example 12a, 5-Benzyl-3-(2-methoxyphenyl)-5-phenyl-4,5-dihydro-isoxazole] | 55.9 ± 1.1 |
| COc1ccccc1C1=NOC(Cc2ccccc2)(c2ccccc2)C1 (single isomer, unassigned) [Example 12b, 5-Benzyl-3-(2-methoxyphenyl)-5-phenyl-4,5-dihydro-isoxazole] | 30.2 ± 6.0 |
| Fc1ccccc1C1=NOC2CCCCC12 (single isomer, unassigned) [Example 27a, 3-(2-Fluoro-phenyl)-3a,4,5,6,7,7a-hexahydro-benzo[d]-isoxazole] | 17.0 ± 7.0 |
| Fc1ccccc1C1=NOC2CCCCC12 (single isomer, unassigned) [Example 27b, 3-(2-Fluoro-phenyl)-3a,4,5,6,7,7a-hexahydro-benzo[d]-isoxazole] | 0 |
| Clc1ccccc1C1=NOC2CCCCC12 (single isomer, unassigned) [Example 30a, 3-(2-Chloro-phenyl)-3a,4,5,6,7,7a-hexahydro-benzo[d]-isoxazole] | 30.2 ± 3.8 |
| Clc1ccccc1C1=NOC2CCCCC12 (single isomer, unassigned) [Example 30b, 3-(2-Chloro-phenyl)-3a,4,5,6,7,7a-hexahydro-benzo[d]-isoxazole] | 66.3 ± 6.5 |
| Clc1cccc(C2=NOC3CCCCC23)c1 (single isomer, unassigned) [Example 31a, 3-(3-Chloro-phenyl)-3a,4,5,6,7,7a-hexahydro-benzo[d]-isoxazole] | 20.3 ± 9.9 |
| Clc1cccc(C2=NOC3CCCCC23)c1 (single isomer, unassigned) [Example 31b, 3-(3-Chloro-phenyl)-3a,4,5,6,7,7a-hexahydro-benzo[d]-isoxazole] | 0 |
| O=[N+]([O-])c1ccc(C2=NOC3CCCCC23)cc1 (single isomer, unassigned) [Example 34a, 3-(4-Nitro-phenyl)-3a,4,5,6,7,7a-hexahydro-benzo[d]-isoxazole] | 34.7 ± 2.7 |
| O=[N+]([O-])c1ccc(C2=NOC3CCCCC23)cc1 (single isomer, unassigned) [Example 34b, 3-(4-Nitro-phenyl)-3a,4,5,6,7,7a-hexahydro-benzo[d]-isoxazole] | 0 |
| CC(C)CN1C(c2ccc([N+](=O)[O-])cc2)=NOC1(C)Cc1ccccc1 (single isomer, unassigned) [Example 61a, 5-Benzyl-4-isobutyl-5-methyl-3-(4-nitro-phenyl)-4,5-dihydro-[1,2,4]oxadiazole] | 14.9 ± 1.8 |
| CC(C)CN1C(c2ccc([N+](=O)[O-])cc2)=NOC1(C)Cc1ccccc1 (single isomer, unassigned) [Example 61b, 5-Benzyl-4-isobutyl-5-methyl-3-(4-nitro-phenyl)-4,5-dihydro-[1,2,4]oxadiazole] | 0 |
| COc1ccc(CC2=NOC(C)(Cc3ccccc3)N2CC(C)C)cc1 (single isomer, unassigned) [Example 65a, 5-Benzyl-4-isobutyl-3-(4-methoxy-benzyl)-5-methyl-4,5-dihydro-[1,2,4]oxadiazole] | 0 |
| COc1ccc(CC2=NOC(C)(Cc3ccccc3)N2CC(C)C)cc1 (single isomer, unassigned) [Example 65b, 5-Benzyl-4-isobutyl-3-(4-methoxy-benzyl)-5-methyl-4,5-dihydro-[1,2,4]oxadiazole] | 13.5 ± 1.6 |
| CCCCN1C(Cc2ccccc2)=NOC1(C)Cc1ccccc1 (stereo not shown) [Example 55b, 3,5-Dibenzyl-4-butyl-5-methyl-4,5-dihydro-[1,2,4]oxadiazole] | 32.7 ± 3.5 |

More lines, now with the values ahead:

| Inhibition of [3H]-R1881 binding at 1.34 nM ± S.D. [%] | SMILES |
| --- | --- |
| 31.1 ± 5.6 | COc1cccc(C2=NOC(Cc3ccccc3)(c3ccccc3)C2)c1 (single isomer, unassigned) [Example 13a, 5-Benzyl-5-phenyl-3-(3-methoxyphenyl)-4,5-dihydro-isoxazole] |
| 1.6 ± 6.6 | COc1cccc(C2=NOC(Cc3ccccc3)(c3ccccc3)C2)c1 (single isomer, unassigned) [Example 13b, 5-Benzyl-5-phenyl-3-(3-methoxyphenyl)-4,5-dihydro-isoxazole] |
| 29.6 ± 3.4 | COc1ccc(C2=NOC(Cc3ccccc3)(c3ccccc3)C2)cc1 (single isomer, unassigned) [Example 14a, 5-Benzyl-3-(4-methoxyphenyl)-5-phenyl-4,5-dihydro-isoxazole] |
| 0 | COc1ccc(C2=NOC(Cc3ccccc3)(c3ccccc3)C2)cc1 (single isomer, unassigned) [Example 14b, 5-Benzyl-3-(4-methoxyphenyl)-5-phenyl-4,5-dihydro-isoxazole] |
| 59.7 ± 2.7 | CC1(Cc2ccccc2)CC(c2ccccc2Cl)=NO1 (stereo not shown) [Example 5b, 5-Benzyl-3-(2-chlorophenyl)-5-methyl-4,5-dihydroisoxazole] |
| 55.7 ± 1.9 | CCCCN1C(c2cccc(Cl)c2)=NOC1(C)Cc1ccccc1 (stereo not shown) [Example 50b, 5-Benzyl-4-butyl-3-(3-chloro-phenyl)-5-methyl-4,5-dihydro-[1,2,4]oxadiazole] |

same assay, conditions: Table 1; compound 13.4 μM; [3H]-R1881 1.34 nM; complete inhibition equals 100%; read-out: Inhibition of [3H]-R1881 binding at 1.34 nM ± S.D.

| SMILES | inhibition at 13.4 µM [%] |
| --- | --- |
| CCCCN1C(c2cccc3ccccc23)=NOC1(C)Cc1ccccc1 (stereo not shown) [Example 53ab, 5-Benzyl-4-butyl-5-methyl-3-napthalen-1-yl-4,5-dihydro-[1,2,4]oxadiazole] | 29.8 ± 10.8 |
| CCCCN1C(c2ccc3ccccc3c2)=NOC1(C)Cc1ccccc1 (stereo not shown) [Example 54ab, 5-Benzyl-4-butyl-5-methyl-3-napthalen-2-yl-4,5-dihydro-[1,2,4]oxadiazole] | 28.2 ± 3 |
| CCCCN1C(Cc2ccccc2)=NOC1(C)Cc1ccccc1 (stereo not shown) [Example 55a, 3,5-Dibenzyl-4-butyl-5-methyl-4,5-dihydro-[1,2,4]oxadiazole] | 35.1 ± 5.8 |

Other lines, results leading:

| inhibition at 13.4 µM [%] | SMILES |
| --- | --- |
| 64.2 ± 2.2 | COc1cccc(C2=NOC(C)(Cc3ccccc3)C2)c1 (stereo not shown) [Example 2ab, 5-Benzyl-3-(3-methoxyphenyl)-5-methyl-4,5-dihydro-isoxazole] |
| 69.9 ± 3.3 | CC1(Cc2ccccc2)CC(c2ccccc2F)=NO1 (stereo not shown) [Example 4ab, 5-Benzyl-3-(2-fluorophenyl)-5-methyl-4,5-dihydro-isoxazole] |
| 42.7 ± 6.6 | CC1(Cc2ccccc2)CC(c2ccccc2Cl)=NO1 (stereo not shown) [Example 5a, 5-Benzyl-3-(2-chlorophenyl)-5-methyl-4,5-dihydroisoxazole] |
| 31.4 ± 1.9 | CC1(Cc2ccccc2)CC(c2cccc(Cl)c2)=NO1 (stereo not shown) [Example 6ab, 5-Benzyl-3-(3-chlorophenyl)-5-methyl-4,5-dihydroisoxazole] |
| 51 ± 2.4 | CC1(Cc2ccccc2)CC(c2ccc(Cl)cc2)=NO1 (stereo not shown) [Example 7ab, 5-Benzyl-3-(4-chlorophenyl)-5-methyl-4,5-dihydro-isoxazole] |
| 30.4 ± 2.9 | CC1(Cc2ccccc2)CC(c2ccc(C#N)cc2)=NO1 (stereo not shown) [Example 8ab, 4-(5-Benzyl-5-methyl-4,5-dihydro-isoxazol-3-yl)-benzonitrile] |
| 63.8 ± 1.8 | CCCCN1C(c2cccc(Cl)c2)=NOC1(C)Cc1ccccc1 (stereo not shown) [Example 50a, 5-Benzyl-4-butyl-3-(3-chloro-phenyl)-5-methyl-4,5-dihydro-[1,2,4]oxadiazole] |
